One substance from paper PMC5477233 (Chembiochem : a European journal of chemical biology, 2016) can be followed below.

Entries after “also recorded” stand apart in the source; their conditions may differ.

This test concerns human insulin receptor. The experiment in a line: in vitro binding to the human insulin receptor. Particulars: compared with wild-type biosynthetic human insulin (Figure S10).

For the substance [(1-^13C=^18O)Phe^B24]human insulin, the receptor-binding activity result is on record as “full insulin receptor binding activity; also recorded: fully active in insulin receptor binding”.
